Literature values, collected in patent publication US20160215053A1, “CXCL12 (CHEMOKINE (C-X-C MOTIF) LIGAND 12) AND IGFBP2 INHIBITORS FOR THE APPLICATION IN THE TREATMENT OF DIABETES MELLITUS ASSOCIATED PANCREATIC CANCER” (priority 2013, published 2016).
“Also recorded” adds a separate entry of the source. Read-outs that look alike come from different tables or passages of the source. Where no end group is shown, it is not given here.

B1: IL-10: factor that induces PSC activation/trans-differentiation (protein, UniProt P22301 19-178, looked up)
Interleukin-10: SPGQGTQSENSCTHFPGNLPNMLRDLRDAFSRVKTFFQMKDQLDNLLLKESLLEDFKGYLGCQALSEMIQFYLEEVMPQAENQDPDIKAHVNSLGENLKTLRLRLRRCHRFLPCENKSKAVEQVKNAFNKLQEKGIYKAMSEFDIFINYIEAYMTMKIRN
B2: CCK: factor that induces PSC activation/trans-differentiation (peptide, UniProt P06307 21-115, looked up)
Cholecystokinin: QPVPPADPAGSGLQRAEEAPRRQLRVSQRTDGESRAHLGALLARYIQQARKAPSGRMSIVKNLQNLDPSHRISDRDYMGWMDFGRRSAEEYEYPS
modifications: Cholecystokinin
B3: Activin A: factor that induces PSC activation/trans-differentiation (protein, UniProt P08476 311-426, looked up)
Inhibin beta A chain: GLECDGKVNICCKKQFFVSFKDIGWNDWIIAPSGYHANYCEGECPSHIAGTSGSSLSFHSTVINHYRMRGHSPFANLKSCCVPTKLRPMSMLYYDDGQNIIKKDIQNMIVEECGCS
modifications: Inhibin beta A chain

Key:
PSC = settings: literature references 19-31
BxPC3 cells = settings: reference 40

Molecule | Effect on PSC (PSC) | further results
CC=O [Acetaldehide] | increased αSMA expression | 
CCO [Ethanol] | type-1 collagen production; also recorded: increased αSMA expression | 
CCCCC[C@H](O)/C=C/[C@H]1[C@H](O)CC(=O)[C@@H]1C/C=C\CCCC(=O)O [Prosztaglandin E2] | increased proliferation, migration | 
Nc1ccn([C@@H]2O[C@H](CO)[C@@H](O)C2(F)F)c(=O)n1 [gemcitabine] |  | Proportion of cancer cells undergoing gemcitabine induced apoptosis (BxPC3 cells; BxPC3 cells treated with hPSC-CM): 9.4%; Proportion of cancer cells undergoing gemcitabine induced apoptosis (BxPC3 cells; BxPC3 cells, without hPSC-CM treatment): 38.9%
Galektin-1: factor that induces PSC activation/trans-differentiation | increased proliferation | 
PDGF |  | Effect on PSC (PSC; cell proliferation): increased proliferation; Effect on PSC (PSC; fibronectin synthesis): increased FN synthesis
TGFα: factor that induces PSC activation/trans-differentiation | increased proliferation, migration | 
TNFα | increased αSMA expression | 
bFGF: factor that induces PSC activation/trans-differentiation | increased proliferation | 
gasztrin: factor that induces PSC activation/trans-differentiation (QGPWLEEEEEAYGWMDF; ends and bridges not checked; UniProt P01350 76-92, looked up) |  | Effect on PSC (PSC; cell proliferation): decreased proliferation; Effect on PSC (PSC; collagen synthesis): increased collagen synthesis,
B1 | increased type-1 collagen production | 
B2 |  | Effect on PSC (PSC; cell proliferation): decreased proliferation; Effect on PSC (PSC; collagen synthesis): increased collagen synthesis,
B3 | increased αSMA expression | 
